Measured values taken from patent US9981940B2, “Aryl sulfide derivatives and aryl sulfoxide derivatives as acaricides and insecticides” (BAYER CROPSCIENCE AKTIENGESELLSCHAFT, priority 2013, dated 2018).

Columns and labels:
[1] = tested on: Tetranychus urticae; experiment: Tetranychus urticae spray test, OP-resistant (TETRUR); assay type: in vivo; settings: after 6 days
How it was run: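 Bean leaf discs infested with all stages of an OP-resistant Tetranychus urticae strain sprayed with compound in acetone/DMF with alkylaryl polyglycol ether emulsifier, diluted in water. Efficacy in % scored after 6 days; 100% means all mites killed.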

[2] = log P by HPLC (OECD Guideline 117), method [a] acidic range; assay type: physicochemical; settings: HPLC, method [a] acidic range
Protocol: (§1) The log P values were determined analogously to OECD Guideline 117 (EC Directive 92/69/EEC) by HPLC (high-performance liquid chromatography) using reversed-phase columns (C 18), by the following methods:
[a] The LC-MS determination in the acidic range is effected at pH 2.7 with 0.1% aqueous formic acid and acetonitrile (contains 0.1% formic acid) as eluents; linear gradient from 10% acetonitrile to 95% acetonitrile.

[3] = log P by HPLC (OECD Guideline 117), method [b] neutral range; assay type: physicochemical; settings: HPLC, method [b] neutral range
Protocol: as §1
[b] The LC-MS determination in the neutral range is effected at pH 7.8 with 0.001 molar aqueous ammonium hydrogencarbonate solution and acetonitrile as eluents; linear gradient from 10% acetonitrile to 95% acetonitrile.

Structure (SMILES)	logP[a] [2]	logP[b] [3]	efficacy ([1]; application rate of 500 g/ha) [%]	efficacy ([1]; application rate of 100 g/ha) [%]
CCCOc1nn(-c2cc(SCC(F)(F)F)c(C)cc2F)c(=O)n1C [Example 127]	3.61	3.57	100	
CCCCOc1nn(-c2cc(SCC(F)(F)F)c(C)cc2F)c(=O)n1C [Example 128]	4.11	3.95	90	
CCOc1nn(-c2cc(SCC(F)(F)F)c(C)cc2F)c(=O)n1C [Example 129]	3.19	3.14	90	
CCOc1nn(-c2ccc(C)c(SCC(F)(F)F)c2)c(=O)n1C [Example 130]	3.77	3.74	90	
CCOc1nn(-c2cc([S+]([O-])CC(F)(F)F)c(C)cc2F)c(=O)n1C (stereo not drawn) [Example 131]	2.13	2.09	90	
CCCOc1nn(-c2cc([S+]([O-])CC(F)(F)F)c(C)cc2F)c(=O)n1C (stereo not drawn) [Example 132]	2.52	2.47	100	
CCCOc1nn(-c2ccc(C)c([S+]([O-])CC(F)(F)F)c2)c(=O)n1C (stereo not drawn) [Example 133]	2.93	2.86	90	
Cc1cc(F)c(-n2nc(OCC3CC3)n(C3CC3)c2=O)cc1SCC(F)(F)F [Example 134]	3.99	3.90	90	
C=C(C)CCOc1nn(-c2cc(SCC(F)(F)F)c(C)cc2F)c(=O)n1C1CC1 [Example 136]	4.37	4.33	90	
C=C(C)CCOc1nn(-c2cc([S+]([O-])CC(F)(F)F)c(C)cc2F)c(=O)n1C1CC1 (stereo not drawn) [Example 137]	3.25	3.17	90	
CCC(C)Oc1nn(-c2cc([S+]([O-])CC(F)(F)F)c(C)cc2F)c(=O)n1C1CC1 (stereo not drawn) [Example 141]	3.18	3.12	90	
Cc1cc(F)c(-n2nc(OCC3CC3)n(C)c2=O)cc1SCC(F)(F)F [Example 143]	3.66	3.58	90	
COc1nn(-c2ccc(C(F)(F)F)c(SCC(F)(F)F)c2)c(=O)n1C1CC1 [Example 144]	4.14	3.85	90	
Cc1cc(F)c(-n2nc(OCC(C)C)n(C)c2=O)cc1SCC(F)(F)F [Example 148]	4.03	3.92	90	
COCCOc1nn(-c2cc(SCC(F)(F)F)c(C)cc2F)c(=O)n1C [Example 149]	2.83	2.76	100	
Cc1cc(F)c(-n2nc(OC(C)C)n(C)c2=O)cc1SCC(F)(F)F [Example 151]	3.61	3.53	100	
Cc1cc(F)c(-n2nc(OCC(C)C)n(C)c2=O)cc1[S+]([O-])CC(F)(F)F (stereo not drawn) [Example 152]	2.90	2.83	90	
Cc1cc(F)c(-n2nc(OC3CCCCC3)n(C)c2=O)cc1SCC(F)(F)F [Example 153]	4.50	4.44	100	
Cc1ccc(-n2nc(OC3CCCCC3)n(C)c2=O)cc1SCC(F)(F)F [Example 155]	5.22	5.17	100	
Cc1cc(F)c(-n2nc(Oc3ccccc3)n(C)c2=O)cc1SCC(F)(F)F [Example 158]	3.70	3.66	100	
Cc1cc(F)c(-n2nc(Oc3ccccc3)n(C)c2=O)cc1[S+]([O-])CC(F)(F)F (stereo not drawn) [Example 159]	2.70	2.65	100	

The next lines start with results.

logP[a] [2]	logP[b] [3]	Structure (SMILES)	efficacy ([1]; application rate of 500 g/ha) [%]	efficacy ([1]; application rate of 100 g/ha) [%]
3.67	3.57	Cc1ccc(-n2nc(OCC(C)(C)C)n(C)c2=O)cc1[S+]([O-])CC(F)(F)F (stereo not drawn) [Example 162]	90	
3.29	3.22	Cc1cc(F)c(-n2nc(OC3CCCCC3)n(C)c2=O)cc1[S+]([O-])CC(F)(F)F (stereo not drawn) [Example 164]	90	
3.21	3.15	Cc1cc(F)c(-n2nc(OCC(C)(C)C)n(C)c2=O)cc1[S+]([O-])CC(F)(F)F (stereo not drawn) [Example 165]	100	
2.48	2.44	Cc1cc(F)c(-n2nc(OC(C)C)n(C)c2=O)cc1[S+]([O-])CC(F)(F)F (stereo not drawn) [Example 166]	90	
1.81	1.77	COc1nn(-c2cc([S+]([O-])CC(F)(F)F)c(F)cc2F)c(=O)n1C (stereo not drawn) [Example 169]	90	
2.15	2.11	COc1nn(-c2cc([S+]([O-])CC(F)(F)F)c(F)cc2F)c(=O)n1C1CC1 (stereo not drawn) [Example 170]	100	
2.97	2.92	COc1nn(-c2cc(SCC(F)(F)F)c(F)cc2F)c(=O)n1C1CC1 [Example 171]	100	
2.57	2.53	COc1nn(-c2cc([S+]([O-])CC(F)(F)F)c(Br)cc2F)c(=O)n1C1CC1 (stereo not drawn) [Example 172]	100	
3.43	3.36	COc1nn(-c2cc(SCC(F)(F)F)c(Br)cc2F)c(=O)n1C1CC1 [Example 173]	100	
3.04	2.98	COc1nn(-c2cc(SCC(F)(F)F)c(Br)cc2F)c(=O)n1C [Example 175]		100
2.92	2.85	Cc1cc(F)c(-n2nc(OCc3ccccc3)n(C)c2=O)cc1[S+]([O-])CC(F)(F)F (stereo not drawn) [Example 177]		100
3.23	3.18	Cc1ccc(-n2nc(OCc3ccccc3)n(C)c2=O)cc1[S+]([O-])CC(F)(F)F (stereo not drawn) [Example 178]	90	
3.16	3.10	CCn1c(OC)nn(-c2cc(SCC(F)(F)F)c(C)cc2F)c1=O [Example 180]	100	
3.30	3.24	C=CCn1c(OC)nn(-c2cc(SCC(F)(F)F)c(C)cc2F)c1=O [Example 182]	100	
2.82	2.76	Cc1cc(F)c(-n2nc(OC(C)(C)C)n(C)c2=O)cc1[S+]([O-])CC(F)(F)F (stereo not drawn) [Example 184]	100	
4.14	4.10	O=c1n(-c2cc(SCC(F)(F)F)c(Cl)cc2Cl)nc(OCC(F)(F)F)n1C1CC1 [Example 185]	90	
3.98	3.93	Cc1cc(Cl)c(-n2nc(OCC(F)(F)F)n(C3CC3)c2=O)cc1SCC(F)(F)F [Example 187]	90	
3.49	3.46	COc1cc(F)c(-n2nc(OCC(F)(F)F)n(C3CC3)c2=O)cc1SCC(F)(F)F [Example 188]		90
4.55	4.48	O=c1n(-c2ccc(C(F)(F)F)c(SCC(F)(F)F)c2)nc(OCC(F)(F)F)n1C1CC1 [Example 189]	100	
